Legend:
[1] = tested on: Klebsiella pneumoniae expressing VIM-1 (IHMA599644); type: cell-based; conditions: with imipenem 1 μg/ml; 95% inhibition of bacterial growth
In short: (§1)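 Clinical MBL-producing strains were grown overnight at 35 °C on blood agar, suspended in saline, diluted 1:100 into 1.1× CAMHB and exposed to test compound with imipenem at 1 μg/ml. After 22–24 h at 35 °C, absorbance gave MITC95: lowest compound concentration inhibiting 95% of growth.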

[2] = tested on: Escherichia coli expressing NDM-1 (CLB30016); type: cell-based; conditions: with imipenem 1 μg/ml; 95% inhibition of bacterial growth
In short: as §1

[3] = tested on: Serratia marcescens expressing IMP-1 (CL5741); type: cell-based; conditions: with imipenem 1 μg/ml; 95% inhibition of bacterial growth
In short: as §1

[4] = tested on: P. aeruginosa MB9799 (efflux-, IMP-1 plasmid); type: cell-based, Pseudomonas aeruginosa; conditions: efflux − (MB9799) strain; imipenem at 2 μg/mL; in the presence of a class A, C, D serine β-lactamase inhibitor closely related to relebactam
In short: (§2)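 Isogenic P. aeruginosa PAO1 strains (efflux+ and multiple-efflux-pump-disrupted) carrying plasmid IMP-1, with inducible AmpC, tested by broth microdilution. Imipenem and/or ceftazidime fixed, usually at CLSI breakpoint, plus fixed class A/C β-lactamase inhibitor; titrated MBL inhibitor concentration restoring susceptibility recorded and compared between strains as efflux fold difference.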

[5] = tested on: P. aeruginosa MB9798 (efflux+, IMP-1 plasmid); conditions: for MB9798 MITC95 P. aeruginosa uM Efflux WT: efflux + (MB9798) strain, imipenem at 2 μg/mL, in the presence of a class A, C, D serine β-lactamase inhibitor closely related to relebactam; for Efflux ratio: fold difference between efflux+ (MB9798) and efflux− (MB9799) strains
In short: as §2

[6] = target: VIM-1 (Pseudomonas aeruginosa (strain ATCC 15692 / DSM 22644 / CIP 104116 / JCM 14847 / LMG 12228 / 1C / PRS 101 / PAO1), UniProt A0A0F7KYQ8); test: biochemical; conditions: CCF2-FA fluorescence assay, 2 hours at 25° C.; read-out: VIM1 IC50
In short: (§3)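 IC50s come from 4-parameter fits of inhibition versus inhibitor concentration, tested from 20 μM down to 0.00063 μM. Enzyme, CCF2-FA (1.25 μM) and inhibitor react 2 h at 25° C, pH 7, with 10 μM ZnSO4 and 0.005% Tween-20.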

[7] = target: IMP-1 (Serratia marcescens, UniProt P52699); test: biochemical; conditions: CCF2-FA fluorescence assay, 2 hours at 25° C.; read-out: IMP1 IC50
In short: as §3

[8] = target: NDM-1 (Klebsiella pneumoniae, UniProt C7C422); test: biochemical; type: biochemical; conditions: CCF2-FA fluorescence assay, 2 hours at 25° C.
In short: as §3

[9] = target: VIM-2 (Escherichia coli, UniProt Q5U7L7); test: biochemical; conditions: CCF2-FA fluorescence assay; read-out: VIM2 IC50

Sequence of IMP-1 (P52699 whole entry, looked up, species assumed): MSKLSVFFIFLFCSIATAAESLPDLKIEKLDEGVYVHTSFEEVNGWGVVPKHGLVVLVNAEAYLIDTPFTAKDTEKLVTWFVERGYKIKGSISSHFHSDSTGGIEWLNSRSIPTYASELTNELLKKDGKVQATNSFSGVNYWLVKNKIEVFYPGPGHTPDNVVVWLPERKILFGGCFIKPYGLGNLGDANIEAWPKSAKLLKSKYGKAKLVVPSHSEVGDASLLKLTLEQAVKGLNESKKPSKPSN
Sequence of NDM-1 (C7C422 whole entry, looked up, species assumed): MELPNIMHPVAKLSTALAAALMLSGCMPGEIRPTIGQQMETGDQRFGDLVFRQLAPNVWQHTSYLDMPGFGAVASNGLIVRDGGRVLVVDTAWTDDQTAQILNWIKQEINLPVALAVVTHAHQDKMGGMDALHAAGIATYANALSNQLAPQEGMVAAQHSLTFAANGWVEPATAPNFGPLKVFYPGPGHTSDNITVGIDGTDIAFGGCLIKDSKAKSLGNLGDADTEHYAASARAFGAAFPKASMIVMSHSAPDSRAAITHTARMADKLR

Row | Structure (SMILES) | IHMA599644 K. pneumoniae MITC95 VIM [1] [µM] | CLB30016 E. coli MITC95 NDM [2] [µM] | CL5741 S. marcescens MITC95 IMP [3] [µM] | MB9799 MITC95 P. aeruginosa uM Efflux Mutant [4] [µM] | MB9798 MITC95 P. aeruginosa uM Efflux WT [5] [µM] | Efflux ratio [5] | IC50 [6] [nM] | IC50 [7] [nM] | IC50 [8] [nM] | IC50 [9] [nM]
1 | NC(=O)C1CCN(c2ccc(S(=O)(=O)N[C@@H]3CCNC3)c(S(N)(=O)=O)c2-c2nnn[nH]2)C1 (stereo partly drawn) [Example 92, 1-{4-[(3R)-pyrrolidin-3-ylsulfamoyl]-3-sulfamoyl-2-(1H-tetrazol-5-yl)phenyl}pyrrolidine-3-carboxamide] | 3.13 | 0.78 | 1.56 | 1.56 | 1.56 | 1.00 | 0.3 | 0.31 | 0.38 | 0.74
2 | NS(=O)(=O)c1c(S(=O)(=O)N[C@@H]2CCNC2)ccc(N2CCN(CCCO)CC2)c1-c1nnn[nH]1 [Example 93, 4-[4-(3-hydroxypropyl)piperazin-1-yl]-N1-[(3R)-pyrrolidin-3-yl]-3-(1H-tetrazol-5-yl)benzene-1,2-disulfonamide] | 1.56 | 0.39 | 0.20 | 1.56 | 3.13 | 2.00 | 3.62 | 2.52 | 1.71 | 6.73
3 | NC(=O)C1CCN(c2ccc(S(=O)(=O)N[C@@H]3CCNC3)c(S(N)(=O)=O)c2-c2nnn[nH]2)CC1 [Example 94, 1-{4-[(3R)-pyrrolidin-3-ylsulfamoyl]-3-sulfamoyl-2-(1H-tetrazol-5-yl)phenyl}piperidine-4-carboxamide] | 6.25 | 3.13 | 6.25 | 3.13 | 3.13 | 1.00 | 0.27 | 0.5 | 0.18 | 1.18
4 | CC(=O)N[C@@H]1CCN(c2ccc(S(=O)(=O)N[C@@H]3CCNC3)c(S(N)(=O)=O)c2-c2nnn[nH]2)C1 [Example 95, N-[(3R)-1-{4-[(3R)-pyrrolidin-3-ylsulfamoyl]-3-sulfamoyl-2-(1H-tetrazol-5-yl)phenyl}pyrrolidin-3-yl]acetamide] | 12.50 | 6.25 | 6.25 | 3.13 | 6.25 | 2.00 | 1.42 | 1.55 | 4.31 | 6.09
5 | NS(=O)(=O)c1c(S(=O)(=O)N[C@@H]2CCNC2)ccc(N2CC[C@H](CO)C2)c1-c1nnn[nH]1 [Example 96, 4-[(3S)-3-(hydroxymethyl)pyrrolidin-1-yl]-N1-[(3R)-pyrrolidin-3-yl]-3-(1H-tetrazol-5-yl)benzene-1,2-disulfonamide] | 6.25 | 3.13 | 1.56 | 1.56 | 3.13 | 2.00 | 0.53 | 0.98 | 1.21 | 1.02
6 | NS(=O)(=O)c1c(S(=O)(=O)N[C@@H]2CCNC2)ccc(N2CC[C@H](O)C2)c1-c1nnn[nH]1 [Example 97, 4-[(3S)-3-hydroxypyrrolidin-1-yl]-N1-[(3R)-pyrrolidin-3-yl]-3-(1H-tetrazol-5-yl)benzene-1,2-disulfonamide] | 12.50 | 3.13 | 6.25 | 3.13 | 6.25 | 2.00 | 2.49 | 11.6 | 6.21 | 4.43
7 | NS(=O)(=O)c1c(S(=O)(=O)N[C@@H]2CCNC2)ccc(N2CCC(CCO)CC2)c1-c1nnn[nH]1 [Example 98, 4-[4-(2-hydroxyethyl)piperidin-1-yl]-N1-[(3R)-pyrrolidin-3-yl]-3-(1H-tetrazol-5-yl)benzene-1,2-disulfonamide] | 12.50 | 12.50 | 6.25 | 3.13 | 3.13 | 1.00 | 0.15 | 0.13 | 0.08 | 0.59
8 | NS(=O)(=O)c1c(S(=O)(=O)N[C@@H]2CCNC2)ccc(N2CC[C@@H](O)C2)c1-c1nnn[nH]1 [Example 99, 4-[(3R)-3-hydroxypyrrolidin-1-yl]-N1-[(3R)-pyrrolidin-3-yl]-3-(1H-tetrazol-5-yl)benzene-1,2-disulfonamide] | 6.25 | 1.56 | 3.13 | 3.13 | 3.13 | 1.00 | 2.66 | 1.33 | 0.92 | 3.22
9 | CN(C)CC1(O)CCN(c2ccc(S(=O)(=O)N[C@@H]3CCNC3)c(S(N)(=O)=O)c2-c2nnn[nH]2)CC1 [Example 100, 4-{4-[(dimethylamino)methyl]-4-hydroxypiperidin-1-yl}-N1-[(3R)-pyrrolidin-3-yl]-3-(1H-tetrazol-5-yl)benzene-1,2-disulfonamide] | 12.50 | 12.50 | 6.25 | 6.25 | 12.50 | 2.00 | 12.4 | 37 | 17.5 | 162
10 | NS(=O)(=O)c1c(S(=O)(=O)N[C@@H]2CCNC2)ccc(N2CCC(CO)CC2)c1-c1nnn[nH]1 [Example 101, 4-[4-(hydroxymethyl)piperidin-1-yl]-N1-[(3R)-pyrrolidin-3-yl]-3-(1H-tetrazol-5-yl)benzene-1,2-disulfonamide] | 3.13 | 0.78 | 1.56 | 0.78 | 1.56 | 2.00 | 0.09 | 0.16 | 0.08 | 0.39
11 | NS(=O)(=O)c1c(S(=O)(=O)N[C@@H]2CCNC2)ccc(N2CCN(CCO)CC2)c1-c1nnn[nH]1 [Example 102, 4-[4-(2-hydroxyethyl)piperazin-1-yl]-N1-[(3R)-pyrrolidin-3-yl]-3-(1H-tetrazol-5-yl)benzene-1,2-disulfonamide] | 3.13 | 0.20 | 0.20 | 1.56 | 3.13 | 2.00 | 3.06 | 2.07 | 1.35 | 7.94
12 | NS(=O)(=O)c1c(S(=O)(=O)N[C@@H]2CCNC2)ccc(N2CCOC(CO)C2)c1-c1nnn[nH]1 (stereo partly drawn) [Example 103, 4-[2-(hydroxymethyl)morpholin-4-yl]-N1-[(3R)-pyrrolidin-3-yl]-3-(1H-tetrazol-5-yl)benzene-1,2-disulfonamide] | 6.25 | 3.13 | 3.13 | 1.56 | 3.13 | 2.00 | 0.42 | 3.46 | 0.68 | 0.59
13 | NS(=O)(=O)c1c(S(=O)(=O)N[C@@H]2CCNC2)ccc(N2CCCCC(O)C2)c1-c1nnn[nH]1 (stereo partly drawn) [Example 104, 4-(3-hydroxyazepan-1-yl)-N1-[(3R)-pyrrolidin-3-yl]-3-(1H-tetrazol-5-yl)benzene-1,2-disulfonamide] | 3.13 | 3.13 | 3.13 | 1.56 | 3.13 | 2.00 | 0.21 | 2.06 | 0.68 | 0.65

Source: patent publication US11207312B2, “Metallo-beta-lactamase inhibitors and methods of use thereof” (priority 2017, dated 2021)
